According to paper PMC8125408, “Polyoxazolines with a Vicinally Double-Bioactivated Terminus for Biomacromolecular Affinity Assessment” (Sensors (Basel, Switzerland), 2021):
Read-outs that look alike come from different tables or passages of the source.

Assays:
Concanavalin A (ConA) [1] = biological target: T1, Concanavalin A (ConA) (Canavalia ensiformis, UniProt P02866); conditions: HBS150T pH 7.4, 25 °C, ConA 118 to […], no aff. = no affinity could be determined
Procedure: Interactions between polymers and Concanavalin A (ConA) were measured by SPR using a […] ®4SPR system (Reichert Technologies). Measurements were performed at 25 °C using HBS150T (10 mM HEPES (pH 7.4), 150 mM NaCl, 3.4 mM EDTA, 0.005% (v/v) Tween 20) as running buffer. For the immobilization of polymers containing a thioether group on the bare gold sensor chip surface, the polymers were injected onto a sensor for 8 min at a flow rate of 10 µL/min to cause polymer coating to a final density of 1000 resonance units. Remaining unspecific protein binding sites on the bare gold surface were saturated by the injection of 500 µM BSA. Purified recombinant ConA was used as an analyte at four concentrations, ranging from 118 to 944 nM. The flowrate for the acquisition of interaction data was set to 25 µL·min^−1 in all experiments. Association was measured for 180 s, then dissociation was initiated by perfusing running buffer, and the dissociation phase was monitored for 300 s. Regeneration of the chip surface was performed by injecting two 60 s pulses of 100 mM glycine (pH 2.5) at a flow rate of 100 µL·min^−1. Interaction data were analyzed using the software TraceDrawer version 1.8.1 (Ridgeview Instruments AB, Uppsala, Sweden), applying a simple Langmuir-type 1:1 interaction model and using global fitting for the rate constants. Association rate constant kon values and dissociation rates constant koff values were obtained by fitting the data of individual experiments. Equilibrium binding KD values were deduced using the equation KD = koff/kon. All SPR experiments were performed in at least three independent experiments.
Preparing the samples is identical to SAW measurements. The SPR measuring channels were coated with polymer solution, and unoccupied gold surface was saturated with BSA.

Concanavalin A (ConA) [2] = biological target: T1, Concanavalin A (ConA); conditions: PBS, 25 °C, four ConA concentrations 118 to […], no aff. = no affinity of the conjugate to the lectin could be determined
Procedure: SAW measurements were performed with apparatus from SAW Instruments GmbH, which included an autosampler and allowed for measuring of protein adsorption and KD value determination. Measurements were performed at 25 °C using PBS as a running buffer. For the immobilization of polymers containing a thioether group on the bare gold sensor chip surface 30 µL of polymers per lane (concentration: 10 µg·mL^−1 in PBS) were preincubated onto the sensor chip for 1 h with an external application mask. Remaining unspecific protein binding sites on the bare gold surface were saturated by the injection of 500 µM BSA. Purified recombinant ConA was used as an analyte at four concentrations, ranging from 118 to 944 nM. The flow rate for the acquisition of interaction data was set to 40 µL·min^−1 in all experiments. Association was measured for 300 s, then dissociation was initiated by perfusing the running buffer, and the dissociation phase was also monitored for 300 s. Regeneration of the chip surface was performed by injection of two 60 s pulses of 100 mM glycine (pH 2.5) at a flow rate of 100 µL·min^−1. Interaction data were analyzed using the FitMaster add-in (SAW Instruments GmbH) of Origin software version 8.5 (OriginLab Corporation), applying a simple Langmuir-type 1:1 interaction model. Association rate constant kon values and dissociation rates constant koff values were obtained by fitting data of individual experiments. Equilibrium binding KD values were deduced using the equation KD = koff/kon. […]
Following the preparation of the gold surface with the polymer conjugates and saturation with BSA, the main measurement can be performed by analyzing the binding affinity of the lectin to the functionalized surface. For this, a constant flow of a series of ConA dilutions with defined concentrations of ConA is injected on each channel and the phase change of surface acoustic waves, which are influenced by binding events, is monitored. […] After measuring four different ConA concentrations, the binding and dissociation curves are fitted and the KD value is calculated.

CGGWYKYW-PMeOx20-SEt
no aff.: SPR KD (Concanavalin A (ConA) [1]; Lane 1 (for III: repeat (1))) | SPR KD (Concanavalin A (ConA) [1]; Lane 2 (for III: repeat (1))) | SPR KD (Concanavalin A (ConA) [1]; Lane 3 (for III: repeat (1))) | SPR KD (Concanavalin A (ConA) [1]; Lane 4 (for III: repeat (1))) | SAW KD (Concanavalin A (ConA) [2]; Lane 1) | SAW KD (Concanavalin A (ConA) [2]; Lane 2) | SAW KD (Concanavalin A (ConA) [2]; Lane 3)
